Legend:
[1] = test system: permeabilised HepG2 cells; test: Calcium retention capacity (CRC) assay in permeabilised HepG2 cells (MPTP opening); type: cell-based, human; design: CRC [10 μM]: unit not given here; settings: compound at 10 μM; for CRC [10 μM]: digitonin permeabilised HepG2 cells; for CRC [10 μM] (ratio vs CsA): normalised to cyclosporin A, value in brackets
Experimental: The use of permeabilised cells means that inhibitory compounds that may not normally enter non-permeabilised cells are more likely to be active.
The calcium retention capacity (CRC) is a measure of the capability of mitochondria to retain calcium, primarily in the form of calcium phosphates, in the mitochondrial matrix.
In a CRC assay, the calcium indicator Calcium Green-5N (InVitrogen) is utilized. […] The assay is carried out in HepG2 (human hepatocellular carcinoma) cells which are digitonin permeabilized. Trains of calcium pulses (typically 5 μM additions) are added which results in a sudden increase in fluorescence which is then reduced by mitochondrial buffering. The cells will reach a point at which the calcium addition is no longer buffered, an indication that the MPTP has opened (mitochondrial permeability transition).
The experiment is performed with and without inhibitor. A compound that acts to inhibit the mitochondrial pore opening will result in a greater requirement for calcium to reach the transition point. The results are normalised to a positive control (cyclosporin A) in each experiment. The results are shown in column 3 of Table 5 as CRC [10 μM] (ratio vs CsA). The method of digitonin permeabilised whole cell CRC assay is similar to that used by Chiara et al. (PLoS One, March, 3, 3, e1852 (2008)).

cyclophilin D = cyclophilin D (Homo sapiens (Human), UniProt P30405); test: Functional peptidyl prolyl isomerase (PPIase) spectrophotometric assay, cyclophilin D; type: biochemical; settings: second value of CypA/D cell; read-out: Ki CypD
Text: (§1) Cyclophilins are enzymes that catalyse the cis-trans isomerisation of peptide bonds to the amino acid proline. This event is important in many biological processes, including protein folding and signal transduction. […] The method to measure this activity and its inhibition is similar to that described by Jankowski (Analytical Biochemistry, 252, 2, 299-307 (1997)). The assay measures the cis to trans isomerisation of a peptide substrate catalysed by a PPlase enzyme using a UV/Vis spectrophotometer. This assay is a manual single cuvette-based assay. A first order rate equation is fitted to the absorbance data to obtain a rate constant. The catalytic rate is calculated from the enzymatic rate minus the background rate. The Ki (the concentration required to produce half maximum inhibition) for an inhibitor is obtained from the rate constant plotted against the inhibitor concentration. Typically, a 6-point dose response curve is obtained from duplicates and a Ki determined. Data are given in Table 5 as Ki [nM] for cyclophilins A and D, expressed in column 2 of Table 5 as Ki (cypA)/Ki (cypD).

cyclophilin A = cyclophilin A (Homo sapiens (Human), UniProt P62937); test: Functional peptidyl prolyl isomerase (PPIase) spectrophotometric assay, cyclophilin A; type: biochemical; settings: first value of CypA/D cell
Text: as §1

SH-SY5Y cells = test: Thapsigargin treated cell death assay in SH-SY5Y cells; type: cell-based, human; settings: compound at 10 μM, positive = protection from cell death, negative = compound toxicity
Text: Thapsigargin raises intracellular free calcium (Ca^2+) by potently inhibiting the endoplasmic reticulum Ca-ATPase, which sequesters Ca^2+ from the cytosol. The increased cytosolic Ca^2+ concentration is buffered by mitochondria by exchanging Ca^2+ for K, leading to depolarisation in the inner mitochondrial membrane and permeability transition.
The thapsigargin treated Jurkat cell death assay is a homogeneous 96 well plate based assay for cell death, instigated by the opening of the mitochondrial permeability transition pore (MPTP). The addition of thapsigargin to Jurkat cells results in an influx of calcium, the increase in intracellular calcium will initially be buffered by the mitochondria, but eventually the increasing calcium concentration will result in the opening of the MPTP, resulting in cell death.
CellTox™ Green is a dye which is unable to enter the cell until cell death leads to the loss of membrane integrity. Once this happens the CellTox™ Green enters the cell, binds to the cell's DNA and emits a fluorescent signal. […] Unless otherwise stated, the assay is typically run using a range of three compound concentrations of 1, 3 and 10 μM in triplicate and is read kinetically over a period of 24 hours. Compounds are added 30 minutes before the addition of thapsigargin. Compound only controls and positive control, cyclosporin A (CsA) (3 and 10 μM) are also included in the assay. Results are typically calculated at the 8 hour time point and the kinetic data is also reported.
The assay is carried out as described for the Jurkat cells but using the SH-SY5Y (human neuroblastoma) cell line instead of Jurkat cells. The results are shown in the fourth column of Table 5 (SY5Y [10 μM]% recovery). Positive numbers indicate protection from cell death, negative numbers indicate compound toxicity.

cyclophilin A, sequence (P62937 whole entry, species assumed): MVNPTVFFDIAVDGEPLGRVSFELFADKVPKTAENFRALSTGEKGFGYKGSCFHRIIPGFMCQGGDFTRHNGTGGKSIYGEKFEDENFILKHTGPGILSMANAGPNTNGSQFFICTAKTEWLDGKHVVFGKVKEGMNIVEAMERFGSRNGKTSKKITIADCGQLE
cyclophilin D, sequence (P30405 30-207, species assumed): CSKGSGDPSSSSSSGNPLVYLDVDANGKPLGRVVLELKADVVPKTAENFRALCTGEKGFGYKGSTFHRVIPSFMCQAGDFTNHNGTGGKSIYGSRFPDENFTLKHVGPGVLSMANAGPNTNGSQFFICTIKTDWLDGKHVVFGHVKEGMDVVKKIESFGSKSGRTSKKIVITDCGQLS

| Structure (SMILES) | CRC [10 μM] [1] | CRC [10 μM] (ratio vs CsA) ([1]; listed as 32) | Ki (cyclophilin D) | Ki (cyclophilin A) | SYSY [10 μM] % recovery (SH-SY5Y cells; listed as 51) | SYSY [10 μM] % recovery (SH-SY5Y cells; listed as 52) | CRC [10 μM] (ratio vs CsA) [1] |
| --- | --- | --- | --- | --- | --- | --- | --- |
| C[C@@H]1NC(=O)[C@@H](CC2CCCNC2)OC(=O)C(C)(C)/C=C/c2ccc3ccc(nc3c2)N(C)N(C)C(=O)[C@@H]2CCCN(N2)C1=O (single isomer, unassigned) [Compound (32)] | 5 | 0.20 | 4900 nM | 2200 nM | – | – | – |
| C[C@@H]1NC(=O)C(Cc2cccc(N)n2)OC(=O)C(C)(C)/C=C/c2ccc3ccc(nc3c2)N(C)NC(=O)[C@@H]2CCCN(N2)C1=O (single isomer, unassigned) [Compound (51)] | – | – | – | – | 37% | – | – |
| C[C@@H]1NC(=O)C(Cc2cccc(N)n2)OC(=O)C(C)(C)/C=C/c2ccc3ccc(nc3c2)N(C)NC(=O)[C@@H]2CCCN(N2)C1=O (single isomer, unassigned) [Compound (52)] | – | – | – | – | – | 35% | – |
| CC(C)[C@H]1OC(=O)C(C)(C)/C=C/c2ccc3ccc(nc3c2)N(C)NC(=O)[C@@H]2CCCN(N2)C(=O)[C@H](C)NC1=O [Compound (3)] | – | – | 1300 nM | 550 nM | – | – | 0.5 |
| CC(C)[C@@H]1OC(=O)C(C)(C)/C=C/c2ccc3ncc(nc3c2)N(C)NC(=O)[C@@H]2CCCN(N2)C(=O)[C@H](C)NC1=O [Compound (4)] | 16.4 | – | 13 nM | 3.3 nM | – | – | – |
| CC(C)[C@@H]1OC(=O)C(C)(C)CCc2ccc3ccc(nc3c2)N(C)NC(=O)[C@@H]2CCCN(N2)C(=O)[C@H](C)NC1=O [Compound (5)] | – | – | > 10 nM | > 10000 nM | – | – | – |
| CC(C)[C@@H]1OC(=O)C(C)(C)/C=C/c2ccc3ccc(nc3c2)N(CCCO)NC(=O)[C@@H]2CCCN(N2)C(=O)[C@H](C)NC1=O [Compound (7)] | – | – | 8.1 nM | 36.7 nM | – | – | – |
| CC(C)[C@@H]1OC(=O)C(C)(C)/C=C/c2ccc3ccc(nc3c2)N2CCCN2C(=O)[C@@H]2CCCN(N2)C(=O)[C@H](C)NC1=O [Compound (8)] | – | – | 15 nM | 13.9 nM | – | – | – |
| CC(=O)N1NC(=O)[C@@H]2CCCN(N2)C(=O)[C@H](C)NC(=O)[C@H](C(C)C)OC(=O)C(C)(C)/C=C/c2ccc3ccc1nc3c2 [Compound (10)] | – | – | 8.7 nM | 5.3 nM | – | – | – |
| C[C@@H]1NC(=O)[C@H](Cc2ccc(C(=O)O)cc2)OC(=O)C(C)(C)/C=C/c2ccc3ccc(nc3c2)N(C)N(C)C(=O)[C@@H]2CCCN(N2)C1=O [Compound (11)] | 20 | – | 83 nM | 280 nM | – | – | 0.80 |
| CC(C)C(=O)N1CCC2(/C=C/c3ccc4ccc(nc4c3)N(C)NC(=O)[C@@H]3CCCN(N3)C(=O)[C@H](C)NC(=O)[C@H](C(C)C)OC2=O)CC1 [Compound (15)] | 38 | – | 9.9 nM | 1.7 nM | – | – | 1 |
| CC(C)[C@@H]1OC(=O)C2(/C=C/c3ccc4ccc(nc4c3)N(C)NC(=O)[C@@H]3CCCN(N3)C(=O)[C@H](C)NC1=O)COCOC2 [Compound (18)] | 10 | – | 370 nM | 260 nM | – | – | 0.33 |
| CC(C)[C@@H]1NCC(C)(C)/C=C/c2ccc3ccc(nc3c2)N(C)NC(=O)[C@@H]2CCCN(N2)C(=O)[C@H](C)NC1=O [Compound (20)] | 22.5 | – | 140 nM | 100 nM | – | – | 0.57 |
| CC(C)[C@H]1C(=O)N[C@@H](C)C(=O)N2CCC[C@H](N2)C(=O)NN(C)c2ccc3ccc(cc3n2)/C=C/C(C)(C)CN1C [Compound (23)] | 12.5 | – | 260 nM | 92 nM | – | – | 0.38 |
| C[C@@H]1NC(=O)[C@H](C2CCCC2)CC(=O)C(C)(C)/C=C/c2ccc3ccc(nc3c2)N(C)NC(=O)[C@@H]2CCCN(N2)C1=O [Compound (24)] | – | – | 12 nM | 19 nM | – | – | – |
| C[C@@H]1NC(=O)[C@@H](CC2CCCN(C)C2)OC(=O)C(C)(C)/C=C/c2ccc3ccc(nc3c2)N(C)NC(=O)[C@@H]2CCCN(N2)C1=O (stereo partly shown) [Compound (28)] | 5 | – | – | 5900 nM | – | – | 0.17 |
| CC(=O)N1CCC[C@@H](C[C@@H]2OC(=O)C(C)(C)/C=C/c3ccc4ccc(nc4c3)N(C)NC(=O)[C@@H]3CCCN(N3)C(=O)[C@H](C)NC2=O)C1 [Compound (29)] | 20 | – | 170 nM | 51 nM | – | – | 0.67 |
| C[C@@H]1NC(=O)[C@H](Cc2ccc(O)cc2)OC(=O)C(C)(C)/C=C/c2ccc3ccc(nc3c2)N(C)NC(=O)[C@@H]2CCCN(N2)C1=O [Compound (42)] | 25 | – | 5.8 nM | 1.2 nM | – | – | 0.8 |
| C[C@@H]1NC(=O)[C@H](CN2CCCCC2)OC(=O)C(C)(C)/C=C/c2ccc3ccc(nc3c2)N(C)NC(=O)[C@@H]2CCCN(N2)C1=O [Compound (44)] | 5 | – | 140 nM | 590 nM | – | – | 0.33 |
| CC(C)C(=O)N1CCN(C[C@@H]2OC(=O)C(C)(C)/C=C/c3ccc4ccc(nc4c3)N(C)NC(=O)[C@@H]3CCCN(N3)C(=O)[C@H](C)NC2=O)C[C@@H]1C [Compound (45)] | 15 | – | 140 nM | 61 nM | – | – | 0.60 |
| CC(C)NC(=O)c1ccc(C[C@@H]2OC(=O)C(C)(C)/C=C/c3ccc4ccc(nc4c3)N(C)NC(=O)[C@@H]3CCCN(N3)C(=O)[C@H](C)NC2=O)cc1 [Compound (47)] | 17.5 | – | 21 nM | 27 nM | – | – | 1.00 |
| C[C@@H]1NC(=O)[C@H](CC2CCNCC2)OC(=O)C(C)(C)/C=C/c2ccc3ccc(nc3c2)N(C)NC(=O)[C@@H]2CCCN(N2)C1=O [Compound (58)] | 8.3 | – | 54.5 nM | 80 nM | – | – | 0.38 |
| C[C@@H]1NC(=O)[C@H](C2CCOCC2)OC(=O)C(C)(C)/C=C/c2ccc3ccc(nc3c2)N(C)NC(=O)[C@@H]2CCCN(N2)C1=O [Compound (59)] | 17.5 | – | 38 nM | 37 nM | – | – | 0.85 |
| CC(C)[C@@H]1OC(=O)C(C)(C)/C=C/c2ccc3ccc(nc3c2)N(C)NC(=O)[C@@H]2CCCN(N2)C(=O)[C@H](CCC(=O)O)NC1=O [Compound (62)] | – | – | 9.6 nM | 5.6 nM | – | – | – |
| CC(C)[C@@H]1OC(=O)C(C)(C)/C=C/c2ccc3ccc(nc3c2)N(C)NC(=O)[C@@H]2CCCN(N2)C(=O)[C@@H](Cc2ccccc2)NC1=O [Compound (77)] | 15 | – | 700 nM | – | – | – | 0.39 |
| CC(C)[C@@H]1OC(=O)C(C)(C)/C=C/c2ccc3ccc(nc3c2)N(C)NC(=O)[C@@H]2CCCN(N2)C(=O)[C@H](Cc2ccncc2)NC1=O [Compound (78)] | >10,000 | – | 360 nM | – | – | – | – |
| CC(C)[C@H]1CC(=O)C(C)(C)/C=C/c2ccc3ccc(nc3c2)N(C)NC(=O)[C@@H]2CCCN(N2)C(=O)[C@H](C)NC1=O [Compound (82)] | – | – | 150 nM | 320 nM | – | – | – |
